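Briefly, cells in 96-well plates were exposed to five compound concentrations for 48 h, and endpoints were estimated by linear interpolation. GI50 is the concentration that inhibits growth by half. TGI denotes the concentration required for complete inhibition of growth.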

Among the data in PubChem BioAssay (NCI) are TGI and GI50 values, retold here.

What all share (assay): growth of human tumour cells (NCI), 48 h
For experiment [1], the system named is OVCAR-3 ovarian.
For experiment [2], the system named is NCI-H23 lung.
For experiment [3], the system named is CCRF-CEM leukemia.
Experiment [4] relates to SN12C renal.
Experiment [5] deals with UO-31 renal.
Experiment [6] deals with SF-268 CNS.
For experiment [7], the system named is IGROV1 ovarian.
Experiment [8] concerns A498 renal.
In experiment [9] the test system is HL-60(TB) leukemia.
Experiment [10] relates to A549 NSCLC.

As for `CCOP(=O)(OCC)C(Cc1ccc(OC)c(OC)c1)N=C(c1ccccc1)c1ccccc1` (stereo not drawn), the TGI in [1] was over 100 µM; in [2], over 100 µM; in experiment [3], 96.9 µM; in experiment [4], over 100 µM; in experiment [5], over 100 µM; in experiment [6] it was over 100 µM. Also, the TGI in experiment [7] was over 100 µM; in [8], over 100 µM; in experiment [9], 51.9 µM; in [10], over 100 µM.
Regarding `CC(/C=C/c1ccc([N+](=O)[O-])o1)=N/N1CC(CN2CCOCC2)OC1=O` (stereo not drawn), the TGI was 42.8 µM in experiment [1]; 49.8 µM in experiment [2]; 47.3 µM in [3]; over 100 µM in experiment [4]; 45.4 µM in experiment [5]; 51.9 µM in experiment [6]. Further, the results for the TGI in experiment [8], in experiment [9] and in [10] were 83.9 µM, 55.7 µM and 98.5 µM, respectively.
As for `COc1ccc(/C=N/NC(=O)NCCCN(C)C)cc1`, the TGI in experiment [1], in experiment [2], in experiment [3], in experiment [4], in experiment [5] and in [6] was over 100 µM each time. In addition, the TGI in [7], in experiment [8], in experiment [9] and in experiment [10] was over 100 µM in each case.
With `CCOc1ccc(/C=C/[N+](=O)[O-])cc1`, the GI50 was 4.53 µM in experiment [1]; 18.5 µM in experiment [2]; 3.23 µM in experiment [3]; 14.7 µM in [4]; 13.8 µM in [5]; 14.1 µM in [6]. Further, the GI50 in experiment [7] was 21.8 µM; in [8], 2.79 µM; in [9] it was 8.83 µM; in experiment [10] it was 12.6 µM. For the same compound, the TGI in experiment [1] was 15.8 µM; in experiment [2], over 100 µM; in experiment [3] it was 52.3 µM; in experiment [4] it was 28.3 µM; in experiment [5], 28.8 µM; in [6], 28.6 µM. Further, the TGI in experiment [7] was over 100 µM; in [8] it was 11.5 µM; in experiment [9], 49 µM; in experiment [10], 27.7 µM.
On to `Cc1nc2ccccc2c(=O)n1CC(=O)O`, for which the TGI in experiment [1], in experiment [2], in [3], in experiment [4], in [5] and in experiment [6] was over 100 µM in each case. Further, the TGI in [7], in [8], in [9] and in experiment [10] was over 100 µM throughout.
Take `Cn1cc(C[C@@H](N)C(=O)O)c2ccccc21`: the TGI in experiment [1], in experiment [2], in experiment [3], in experiment [4], in [5] and in experiment [6] was over 100 µM throughout. In addition, the TGI in [7], in experiment [8], in experiment [9] and in experiment [10] was over 100 µM in each case.
Take `Cc1cccc2c(N)c3cccc(C(=O)NCCN(C)C)c3nc12`: the TGI came to 0.929 µM in experiment [1]; 1.16 µM in experiment [2]; 0.0324 µM in experiment [3]; 0.457 µM in experiment [4]; 0.81 µM in experiment [5]; 2.41 µM in [6]. For the same compound, the TGI turned out to be 0.508 µM in experiment [7], 0.516 µM in [8], 0.0427 µM in experiment [9] and 3.5 µM in experiment [10].
`Nc1ncnc2c1ncn2C1CCC(CO)O1` (stereo not drawn): the TGI in experiment [1] is over 100 µM; in experiment [2], over 71.5 µM; in [3] it was over 100 µM; in experiment [4], over 100 µM; in experiment [5], over 100 µM; in experiment [6], over 87.7 µM. Further, the TGI in [7], in [8], in experiment [9] and in experiment [10] was over 100 µM each time.
As for `CC(C)=CCc1c(C)cc2cc3c(c(O)c2c1O)C(O)=CC(=O)C3(CC=C(C)C)C/C=C(\C)CO` (stereo not drawn), the TGI in experiment [1] was 76.3 µM; in [2], 84.8 µM; in experiment [3], 60.1 µM; in [4] it was 76.8 µM; in experiment [5], 64.4 µM; in experiment [6], 85.4 µM. Moreover, the TGI in experiment [7] was determined as 79.6 µM; in [8], 15.2 µM; in experiment [9], 51.3 µM; in [10] it was 77 µM.
As for `CC[C@@H](C(=O)[C@@H](C)[C@@H](O)[C@H](C)CCc1ccc(C)c(O)c1C(=O)O)[C@H]1O[C@](CC)([C@H]2CC[C@](O)(CC)[C@H](C)O2)C[C@@H]1C`, the TGI in [1] was 10.9 µM; in [2], 6.87 µM; in experiment [3], 6.29 µM; in [4] it was 10 µM; in experiment [5], 12.4 µM; in experiment [6], 9.09 µM. Further, the TGI in [7] turned out to be 13.3 µM; in experiment [8] it was 2.37 µM; in [9] it was 1.54 µM; in experiment [10], 11.9 µM.
For `O=C(Nc1nc2ccc([N+](=O)[O-])cc2[n+]([O-])n1)C(F)(F)F`, the TGI in experiment [2] is 80.3 µM; in experiment [3], over 100 µM; in experiment [4] it was over 100 µM; in experiment [5] it was over 100 µM; in experiment [6], over 100 µM; in experiment [7], 44.5 µM. The TGI was 65.5 µM in [8], 34.9 µM in experiment [9] and 83.8 µM in experiment [10].
With `CO/N=C1/c2sccc2[C@H](NC(=O)C(F)(F)F)[C@@H]1O`, the TGI in experiment [1], in experiment [2], in [3], in experiment [4], in experiment [5] and in [6] was over 100 µM throughout. Further, the TGI in [7], in [8], in experiment [9] and in [10] was over 100 µM each time.
Turning to `C[C@]12C=CC(=O)C=C1CC[C@@H]1[C@@H]2C(=O)C[C@@]2(C)[C@H]1CC[C@]2(O)C(=O)CO`, the TGI in experiment [1], in experiment [2], in experiment [3], in [4], in experiment [5] and in experiment [6] was over 100 µM each time. Also, the TGI in experiment [7], in [8], in experiment [9] and in [10] was over 100 µM throughout.
